According to the NIST ThermoML archive (doi:10.1016/j.jct.2013.12.012):
Several values for one entry are separate records, joined by “and”; a condition that tells them apart may be missing. Equal values may be shown once. ± gives the expanded uncertainty stated by the source.

Assays:
[1] = for vapor or sublimation pressure: Closed cell (Static) method; for Normal melting temperature / Triple point temperature: DTA
[2] = Molar enthalpy of transition or fusion; settings: DSC
[3] = molar heat capacity at constant pressure

C=C1C2CCC(C2)C1(C)C (stereo not drawn) [2,2-dimethyl-3-methylenebicyclo[2.2.1]heptane]
[1], Crystal
Settings | vapor or sublimation pressure
238.15 K | 0.003435 ± 0.00016 kPa and 0.003436 ± 0.00016 kPa
243.15 K | 0.005761 ± 0.00025 kPa and 0.005765 ± 0.00025 kPa and 0.005768 ± 0.00025 kPa
248.15 K | 0.00946 ± 0.0004 kPa and 0.009464 ± 0.0004 kPa and 0.009473 ± 0.0004 kPa
253.15 K | 0.01527 ± 0.00059 kPa
258.15 K | 0.0241 ± 0.0008 kPa and 0.02413 ± 0.0008 kPa
263.15 K | 0.03746 ± 0.0011 kPa and 0.03747 ± 0.0011 kPa
268.15 K | 0.05698 ± 0.0016 kPa and 0.05699 ± 0.0016 kPa
273.15 K | 0.08514 ± 0.0023 kPa and 0.08515 ± 0.0023 kPa and 0.08516 ± 0.0023 kPa
273.65 K | 0.0885 ± 0.0024 kPa and 0.08853 ± 0.0024 kPa and 0.08854 ± 0.0024 kPa
278.15 K | 0.1252 ± 0.0033 kPa
283.15 K | 0.1811 ± 0.0043 kPa
288.15 K | 0.2585 ± 0.006 kPa and 0.2586 ± 0.006 kPa and 0.2587 ± 0.006 kPa
293.15 K | 0.3628 ± 0.0082 kPa and 0.363 ± 0.0082 kPa and 0.3631 ± 0.0082 kPa
298.15 K | 0.5037 ± 0.011 kPa and 0.5038 ± 0.011 kPa and 0.5039 ± 0.011 kPa
303.15 K | 0.6891 ± 0.015 kPa and 0.6896 ± 0.015 kPa and 0.69 ± 0.015 kPa
308.15 K | 0.934 ± 0.02 kPa and 0.9343 ± 0.02 kPa and 0.9345 ± 0.02 kPa

Crystal
Settings | Molar enthalpy of transition or fusion [kcal/mol] | Normal melting temperature [°C]
[1] | – | 44.5 ± 0.5
[2] | 0.645 ± 0.0956 | –

[3], 101.33 kPa, Large sample (1 g) DSC
Settings | molar heat capacity at constant pressure [J/K/mol]
258.1 K, Crystal | 211.1 ± 3.7
263.2 K, Crystal | 213.9 ± 3.7
268.3 K, Crystal | 216.8 ± 3.7
273.4 K, Crystal | 219.8 ± 3.8
278.5 K, Crystal | 222.7 ± 3.8
283.6 K, Crystal | 225.7 ± 3.9
288.7 K, Crystal | 228.8 ± 4
293.8 K, Crystal | 231.9 ± 4
298.9 K, Crystal | 235.1 ± 4.1
324.5 K, Liquid | 251.5 ± 4.3
329.6 K, Liquid | 254.5 ± 4.4
334.7 K, Liquid | 257.4 ± 4.5
339.8 K, Liquid | 259.8 ± 4.5
344.9 K, Liquid | 262.3 ± 4.6
350 K, Liquid | 265.6 ± 4.6
355.1 K, Liquid | 269.3 ± 4.7

CC1(C)[C@H]2CC[C@]1(C)C(=O)C2 [(1S)-1,7,7-trimethylbicyclo[2.2.1]heptan-2-one]
[1], Crystal 2
Settings | vapor or sublimation pressure
273.65 K | 0.00359 ± 0.00017 kPa and 0.003604 ± 0.00017 kPa and 0.003606 ± 0.00017 kPa
278.15 K | 0.005406 ± 0.00023 kPa and 0.005414 ± 0.00023 kPa and 0.00542 ± 0.00023 kPa
283.15 K | 0.008302 ± 0.00034 kPa and 0.008322 ± 0.00034 kPa and 0.008324 ± 0.00034 kPa
288.15 K | 0.01261 ± 0.0005 kPa and 0.01262 ± 0.0005 kPa and 0.0126 ± 0.0005 kPa
293.15 K | 0.01883 ± 0.0006 kPa and 0.01885 ± 0.00061 kPa and 0.01888 ± 0.00061 kPa
298.15 K | 0.02802 ± 0.00075 kPa and 0.02806 ± 0.00075 kPa and 0.02812 ± 0.00075 kPa
303.15 K | 0.04122 ± 0.00097 kPa and 0.04127 ± 0.00097 kPa
308.15 K | 0.05983 ± 0.0013 kPa and 0.05985 ± 0.0013 kPa and 0.05989 ± 0.0013 kPa

Settings | Molar enthalpy of transition or fusion, Crystal 1 [kcal/mol] | Molar enthalpy of transition or fusion, Crystal 2 [kcal/mol] | Molar enthalpy of transition or fusion, Crystal 3 [kcal/mol] | Normal melting temperature, Crystal 1 [°C] | Triple point temperature, Crystal 2 [K] | Triple point temperature, Crystal 3 [K]
[1] | – | – | – | 175.4 ± 0.5 | 373.4 ± 1.1 | 243.9 ± 0.5
[2] | 1.17 ± 0.0717 | 0.0478 ± 0.0239 | 2.63 ± 0.0956 | – | – | –

[3], 101.33 kPa, Crystal 2, Large sample (1 g) DSC
Settings | molar heat capacity at constant pressure [J/K/mol]
273.4 K | 241 ± 4.2
278.5 K | 242 ± 4.2
283.6 K | 243 ± 4.2
288.7 K | 244.9 ± 4.2
293.8 K | 246.6 ± 4.2
298.9 K | 248.9 ± 4.3
304 K | 251 ± 4.3
309.1 K | 253.2 ± 4.4
314.2 K | 255.5 ± 4.4
319.4 K | 256.9 ± 4.5
324.5 K | 259.7 ± 4.5
329.6 K | 262.5 ± 4.6
334.7 K | 264.8 ± 4.6
339.8 K | 267.2 ± 4.7
344.9 K | 270.5 ± 4.7
350 K | 273.6 ± 4.7
355.1 K | 276.7 ± 4.8

CC1(C)[C@H]2CC[C@]1(C)[C@H](O)C2 [(1S-endo)-1,7,7-trimethylbicyclo[2.2.1]heptan-2-ol]
[1], Crystal 2
Settings | vapor or sublimation pressure
273.65 K | 0.000211 ± 0.00011 kPa and 0.000212 ± 0.00011 kPa
278.15 K | 0.00036 ± 0.00011 kPa and 0.000361 ± 0.00011 kPa
283.15 K | 0.000638 ± 0.00012 kPa and 0.000639 ± 0.00012 kPa
288.15 K | 0.001105 ± 0.00012 kPa and 0.001106 ± 0.00012 kPa and 0.001104 ± 0.00012 kPa
293.15 K | 0.001882 ± 0.00014 kPa and 0.001883 ± 0.00014 kPa
298.15 K | 0.003159 ± 0.00017 kPa and 0.003161 ± 0.00017 kPa and 0.003162 ± 0.00017 kPa
303.15 K | 0.005213 ± 0.00023 kPa and 0.005214 ± 0.00023 kPa and 0.005215 ± 0.00023 kPa
308.15 K | 0.008461 ± 0.00035 kPa and 0.008464 ± 0.00035 kPa and 0.008465 ± 0.00035 kPa

Settings | Molar enthalpy of transition or fusion, [2] [kcal/mol] | Normal melting temperature, [1] [°C] | Triple point temperature, [1] [K]
Crystal 1 | 1.74 ± 0.0956 | 207.2 ± 0.5 | –
Crystal 2 | 0.765 ± 0.0717 | – | 347.9 ± 0.5

[3], 101.33 kPa, Crystal 2, Large sample (1 g) DSC
Settings | molar heat capacity at constant pressure [J/K/mol]
273.4 K | 237.9 ± 4.2
278.5 K | 241.9 ± 4.2
283.6 K | 246.4 ± 4.2
288.7 K | 250.5 ± 4.3
293.8 K | 255.4 ± 4.4
298.9 K | 261.2 ± 4.5
304 K | 266.7 ± 4.7
309.1 K | 272.5 ± 4.7
314.2 K | 279 ± 4.8
319.4 K | 286.1 ± 5
324.5 K | 293.6 ± 5.1
329.6 K | 302 ± 5.2
334.7 K | 311 ± 5.4

CC1(C)C(=O)[C@@]2(C)CC[C@@H]1C2 [(+)-fenchone]
[1]
Settings | vapor or sublimation pressure
238.15 K, Crystal 2 | 0.00014 ± 0.0001 kPa and 0.000141 ± 0.0001 kPa and 0.000142 ± 0.0001 kPa
243.15 K, Crystal 2 | 0.000277 ± 0.00011 kPa and 0.000278 ± 0.00011 kPa
243.15 K, Metastable liquid | 0.000763 ± 0.00011 kPa and 0.000764 ± 0.00011 kPa
248.15 K, Crystal 2 | 0.000547 ± 0.00011 kPa and 0.000548 ± 0.00011 kPa
248.15 K, Metastable liquid | 0.001307 ± 0.00012 kPa and 0.001308 ± 0.00012 kPa
253.15 K, Crystal 2 | 0.001053 ± 0.00011 kPa and 0.001054 ± 0.00011 kPa
253.15 K, Metastable liquid | 0.002188 ± 0.00013 kPa and 0.002189 ± 0.00013 kPa
258.15 K, Crystal 2 | 0.001988 ± 0.00013 kPa and 0.001991 ± 0.00013 kPa and 0.001993 ± 0.00013 kPa
258.15 K, Metastable liquid | 0.003604 ± 0.00017 kPa and 0.003605 ± 0.00017 kPa
263.15 K, Crystal 2 | 0.0037 ± 0.00017 kPa and 0.003705 ± 0.00017 kPa
263.15 K, Metastable liquid | 0.005827 ± 0.00025 kPa and 0.005828 ± 0.00025 kPa and 0.005829 ± 0.00025 kPa
268.15 K, Crystal 2 | 0.006751 ± 0.00028 kPa and 0.006753 ± 0.00028 kPa
268.15 K, Metastable liquid | 0.009242 ± 0.00037 kPa and 0.009244 ± 0.00037 kPa and 0.009246 ± 0.00037 kPa
273.15 K, Crystal 2 | 0.01206 ± 0.00048 kPa
273.15 K, Metastable liquid | 0.01436 ± 0.00053 kPa
278.15 K, Crystal 1 | 0.02111 ± 0.00064 kPa and 0.02112 ± 0.00064 kPa
278.15 K, Metastable liquid | 0.02193 ± 0.00065 kPa and 0.02194 ± 0.00065 kPa
283.15 K, Liquid | 0.03289 ± 0.00082 kPa and 0.0329 ± 0.00082 kPa and 0.03291 ± 0.00082 kPa
288.15 K, Liquid | 0.04842 ± 0.0011 kPa and 0.04845 ± 0.0011 kPa
293.15 K, Liquid | 0.07036 ± 0.0015 kPa and 0.07037 ± 0.0015 kPa
298.15 K, Liquid | 0.1007 ± 0.002 kPa and 0.1008 ± 0.002 kPa
303.15 K, Liquid | 0.1421 ± 0.0024 kPa
308.15 K, Liquid | 0.1977 ± 0.0031 kPa and 0.1978 ± 0.0031 kPa

Settings | Molar enthalpy of transition or fusion, [2] [kcal/mol] | Normal melting temperature, [1] [°C] | Triple point temperature, [1] [K]
Crystal 1 | – | 5.5 ± 0.5 | –
Crystal 2 | 4.16 ± 0.12 | – | 278 ± 0.5

[3], 101.33 kPa
Settings | molar heat capacity at constant pressure [J/K/mol]
273.4 K, Metastable liquid, Large sample (1 g) DSC | 259.6 ± 4.5
278.5 K, Metastable liquid, Large sample (1 g) DSC | 260.7 ± 4.5
283.6 K, Large sample (1 g) DSC, Liquid | 263.6 ± 4.6
288.7 K, Large sample (1 g) DSC, Liquid | 264.6 ± 4.6
293.8 K, Large sample (1 g) DSC, Liquid | 266.6 ± 4.7
298.9 K, Large sample (1 g) DSC, Liquid | 269.8 ± 4.7
304 K, Large sample (1 g) DSC, Liquid | 271.8 ± 4.7
309.1 K, Large sample (1 g) DSC, Liquid | 274.4 ± 4.7
314.2 K, Large sample (1 g) DSC, Liquid | 277 ± 4.8
319.4 K, Large sample (1 g) DSC, Liquid | 278.9 ± 4.8
324.5 K, Large sample (1 g) DSC, Liquid | 281.7 ± 4.9
329.6 K, Large sample (1 g) DSC, Liquid | 284.7 ± 4.9
334.7 K, Large sample (1 g) DSC, Liquid | 287.3 ± 5
339.8 K, Large sample (1 g) DSC, Liquid | 289.9 ± 5
344.9 K, Large sample (1 g) DSC, Liquid | 292.7 ± 5.1
350 K, Large sample (1 g) DSC, Liquid | 295.6 ± 5.2
355.1 K, Large sample (1 g) DSC, Liquid | 298.8 ± 5.2
